Literature values in publication PMC9306982 (Journal of Food and Drug Analysis, 2019).
Blank lines part the entries; values can stand above or below the compound they belong to.

Legend:
[1] = tested on: potassium oxonate-treated rat; conditions: oral administration
xanthine oxidase = conditions: for inhibitory activity against xanthine oxidase (in words): isolates from aerial part of Hyptis rhomboids
[2] = compared with caffeoylquinic acids

Compound: COC(=O)C1(O)CC(O)C(OC(=O)C=Cc2ccc(O)c(O)c2)C(OC(=O)C=Cc2ccc(O)c(O)c2)C1 (centres unmarked) [methyl 4,5-dicaffeoylquinate]
hypouricemic effect (in words) [1]: good

inhibitory activity against xanthine oxidase (in words) (xanthine oxidase): good
Compound: epihyprhombin B

xanthine oxidase inhibitory activity (in words) (xanthine oxidase): moderate
bioavailability (in words) [2]: better
Compound: O=C(O)/C=C/c1ccc(O)c(O)c1 [Compound 11, caffeic acid]

inhibitory activity against xanthine oxidase (in words) (xanthine oxidase): good
Compound: O=C(/C=C/c1ccc(O)c(O)c1)O/C=C\c1ccc(O)c(O)c1 [netpetoidin B]
